# Laboratory results from patent publication US9139529B2, “Substituted quinoxalines as sodium channel modulators” (VERTEX PHARMACEUTICALS INCORPORATED, priority 2013, dated 2015).
# Biological target: human Nav1.8 (Homo sapiens (Human), UniProt Q9Y5Y9)
# Experiment: E-VIPR optical membrane potential assay with electrical stimulation
# Format: cell-based
# Settings: HEK cells expressing human Nav1.8
# Excerpt: Assays for Detecting and Measuring NaV Inhibition Properties of Compounds E-VIPR Optical Membrane Potential Assay Method with Electrical Stimulation
# Sodium channels are voltage-dependent proteins that can be activated by inducing membrane voltage changes by applying electric fields. The electrical stimulation instrument and methods of use are described in Ion Channel Assay Methods PCT/US01/21652, herein incorporated by reference and are referred to as E-VIPR. The instrument comprises a microtiter plate handler, an optical system for exciting the coumarin dye while simultaneously recording the coumarin and oxonol emissions, a waveform generator, a current- or voltage-controlled amplifier, and a device for inserting electrodes in well. Under integrated computer control, this instrument passes user-programmed electrical stimulus protocols to cells within the wells of the microtiter plate.
# 24 hours before the assay on E-VIPR, HEK cells expressing human Nav1.8 were seeded in 384-well poly-lysine coated plates at 15,000-20,000 cells per well. HEK cells were grown in media (exact composition is specific to each cell type and NaV subtype) supplemented with 10% FBS (Fetal Bovine Serum, qualified; GibcoBRL #16140-071) and 1% Pen-Strep (Penicillin-Streptomycin; GibcoBRL #15140-122). Cells were grown in vented cap flasks, in 90% humidity and 5% CO2.
# 1) Pre-spotted compounds (in neat DMSO) into compound plates. Vehicle control (neat DMSO), the positive control (20 mM DMSO stock tetracaine, 125 μM final in assay) and test compounds were added to each well at 160× desired final concentration in neat DMSO. Final compound plate volume was 80 μL (80-fold intermediate dilution from 1 μL DMSO spot; 160-fold final dilution after transfer to cell plate). Final DMSO concentration for all wells in assay was 0.625%.
# 2) Prepared Hexyl Dye Solution.
# 3) Prepared cell plates. On the day of the assay, medium was aspirated and cells were washed three times with 100 μL of Bath1 Solution, maintaining 25 μL residual volume in each well.
# 4) Dispensed 25 μL per well of Hexyl Dye Solution into cell plates. Incubated for 20-35 minutes at room temp or ambient conditions.
# 5) Dispensed 80 μL per well of Bath1 into compound plates. Acid Yellow-17 (1 mM) was added and Potassium Chloride was altered from 4.5 to 20 mM depending on the NaV subtype and assay sensitivity.
# 6) Washed cell plates three times with 100 μL per well of Bath1, leaving 25 μL of residual volume. Then transferred 25 uL per well from Compound Plates to Cell Plates. Incubated for 20-35 minutes at room temp/ambient condition.
# 7) Read Plate on E-VIPR. Used the current-controlled amplifier to deliver stimulation wave pulses for 10 seconds and a scan rate of 200 Hz. A pre-stimulus recording was performed for 0.5 seconds to obtain the un-stimulated intensities baseline. The stimulatory waveform was followed by 0.5 seconds of post-stimulation recording to examine the relaxation to the resting state.
# Data was analyzed and reported as normalized ratios of emission intensities measured in the 460 nm and 580 nm channels. The response as a function of time was reported as the ratios obtained using the following formula: […]
# The data was further reduced by calculating the initial (Ri) and final (Rf) ratios. These were the average ratio values during part or all of the pre-stimulation period, and during sample points during the stimulation period. The response to the stimulus R=Rf/Ri was then calculated and reported as a function of time.
# Control responses were obtained by performing assays in the presence of a compound with the desired properties (positive control), such as tetracaine, and in the absence of pharmacological agents (negative control). Responses to the negative (N) and positive (P) controls were calculated as above. The compound antagonist activity A is defined as:
# [formula] where R is the ratio response of the test compound
# human Nav1.8, sequence (Q9Y5Y9 whole entry): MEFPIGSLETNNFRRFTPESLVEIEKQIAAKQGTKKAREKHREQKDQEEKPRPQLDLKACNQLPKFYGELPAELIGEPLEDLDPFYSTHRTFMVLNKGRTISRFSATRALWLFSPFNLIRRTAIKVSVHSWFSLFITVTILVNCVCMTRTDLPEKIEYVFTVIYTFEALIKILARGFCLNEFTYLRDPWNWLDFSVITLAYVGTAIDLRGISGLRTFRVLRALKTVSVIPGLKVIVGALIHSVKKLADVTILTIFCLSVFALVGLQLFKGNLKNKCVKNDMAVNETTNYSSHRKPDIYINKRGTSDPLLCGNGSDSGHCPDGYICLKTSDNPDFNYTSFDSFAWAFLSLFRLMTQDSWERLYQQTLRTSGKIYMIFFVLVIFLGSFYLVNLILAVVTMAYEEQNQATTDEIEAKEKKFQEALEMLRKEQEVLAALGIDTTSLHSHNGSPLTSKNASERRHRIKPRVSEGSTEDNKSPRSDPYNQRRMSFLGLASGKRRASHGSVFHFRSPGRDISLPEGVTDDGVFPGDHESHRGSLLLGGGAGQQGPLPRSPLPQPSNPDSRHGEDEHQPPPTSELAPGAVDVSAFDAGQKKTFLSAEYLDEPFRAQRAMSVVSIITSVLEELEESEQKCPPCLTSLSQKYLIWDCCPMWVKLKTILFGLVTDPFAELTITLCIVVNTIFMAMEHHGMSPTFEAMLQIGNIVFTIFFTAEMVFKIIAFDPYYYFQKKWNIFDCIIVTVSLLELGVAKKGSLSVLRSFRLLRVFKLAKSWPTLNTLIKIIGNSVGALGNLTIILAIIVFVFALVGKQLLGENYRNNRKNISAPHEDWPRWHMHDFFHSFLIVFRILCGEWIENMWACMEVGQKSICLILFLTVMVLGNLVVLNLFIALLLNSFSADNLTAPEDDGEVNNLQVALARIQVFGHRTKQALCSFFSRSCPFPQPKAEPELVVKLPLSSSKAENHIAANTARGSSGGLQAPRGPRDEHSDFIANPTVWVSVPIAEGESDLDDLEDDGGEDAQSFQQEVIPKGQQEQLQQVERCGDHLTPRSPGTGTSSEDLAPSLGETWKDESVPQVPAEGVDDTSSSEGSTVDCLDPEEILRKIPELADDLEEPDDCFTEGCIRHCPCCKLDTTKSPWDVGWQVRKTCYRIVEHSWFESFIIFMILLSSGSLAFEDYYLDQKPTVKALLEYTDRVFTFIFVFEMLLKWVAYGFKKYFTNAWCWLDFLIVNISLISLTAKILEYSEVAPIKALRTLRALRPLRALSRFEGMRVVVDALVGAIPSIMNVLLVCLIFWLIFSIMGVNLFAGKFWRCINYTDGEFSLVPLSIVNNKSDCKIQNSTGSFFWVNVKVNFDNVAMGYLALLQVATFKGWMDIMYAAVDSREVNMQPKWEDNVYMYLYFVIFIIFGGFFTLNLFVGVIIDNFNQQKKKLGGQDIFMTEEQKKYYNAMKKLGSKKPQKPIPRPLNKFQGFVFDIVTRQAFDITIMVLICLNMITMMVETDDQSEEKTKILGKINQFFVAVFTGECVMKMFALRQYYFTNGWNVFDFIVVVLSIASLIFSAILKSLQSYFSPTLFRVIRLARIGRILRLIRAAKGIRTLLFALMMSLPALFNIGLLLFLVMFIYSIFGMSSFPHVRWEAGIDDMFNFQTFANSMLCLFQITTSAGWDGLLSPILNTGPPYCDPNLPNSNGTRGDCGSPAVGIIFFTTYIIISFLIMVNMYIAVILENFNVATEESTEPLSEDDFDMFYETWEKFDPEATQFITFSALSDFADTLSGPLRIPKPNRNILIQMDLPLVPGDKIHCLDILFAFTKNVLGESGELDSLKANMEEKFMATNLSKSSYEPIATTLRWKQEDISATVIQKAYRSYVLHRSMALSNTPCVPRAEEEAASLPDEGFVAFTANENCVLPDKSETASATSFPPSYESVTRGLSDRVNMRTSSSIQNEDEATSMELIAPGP
row,SMILES,IC50 [µM]
1,"COc1cc(F)ccc1Oc1nc2ccccc2nc1C(=O)Nc1ccc(C#N)cn1 [Compound 52, N-(5-cyanopyridin-2-yl)-3-(4-fluoro-2-methoxyphenoxy)quinoxaline-2-carboxamide]",2.4
2,"COc1cc(F)ccc1Oc1nc2ccccc2nc1C(=O)Nc1cccnc1 [Compound 54, 3-(4-fluoro-2-methoxyphenoxy)-N-(pyridin-3-yl)quinoxaline-2-carboxamide]",0.08
3,"COc1cc(F)ccc1Oc1nc2ccccc2nc1C(=O)Nc1ccc(C#N)cc1 [Compound 55, N-(4-cyanophenyl)-3-(4-fluoro-2-methoxyphenoxy)quinoxaline-2-carboxamide]",0.046
4,"COc1cc(F)ccc1Oc1nc2ccccc2nc1C(=O)Nc1cccc(C#N)c1 [Compound 56, N-(3-cyanophenyl)-3-(4-fluoro-2-methoxyphenoxy)quinoxaline-2-carboxamide]",0.03
5,"COc1cc(F)ccc1Oc1nc2ccccc2nc1C(=O)Nc1ccc(C(N)=O)cc1 [Compound 58, N-(4-carbamoylphenyl)-3-(4-fluoro-2-methoxyphenoxy)quinoxaline-2-carboxamide]",0.031
6,"COc1cc(F)ccc1Oc1nc2ccccc2nc1C(=O)Nc1cccc(C(N)=O)c1 [Compound 59, N-(3-carbamoylphenyl)-3-(4-fluoro-2-methoxyphenoxy)quinoxaline-2-carboxamide]",0.18
7,"COc1ccc(Oc2nc3ccccc3cc2C(=O)Nc2cccc(S(N)(=O)=O)c2)cc1F [Compound 62, 2-(3-fluoro-4-methoxyphenoxy)-N-(3-sulfamoylphenyl)quinoline-3-carboxamide]",0.03
8,"NS(=O)(=O)c1cccc(NC(=O)c2cc3ccccc3nc2Oc2ccccc2)c1 [Compound 64, 2-phenoxy-N-(3-sulfamoylphenyl)quinoline-3-carboxamide]",0.081
9,"NS(=O)(=O)c1cccc(NC(=O)c2cc3ccccc3nc2Oc2ccc(OCC(F)(F)F)cc2)c1 [Compound 67, N-(3-sulfamoylphenyl)-2-(4-(2,2,2-trifluoroethoxy)phenoxy)quinoline-3-carboxamide]",0.061
10,"COc1ccc(Oc2nc3ccccc3cc2C(=O)Nc2cccc(S(N)(=O)=O)c2)c(F)c1 [Compound 70, 2-(2-fluoro-4-methoxyphenoxy)-N-(3-sulfamoylphenyl)quinoline-3-carboxamide]",0.034
11,"COc1ccc(Oc2nc3ccccc3cc2C(=O)Nc2cccc(S(N)(=O)=O)c2)c(OC)c1 [Compound 72, 2-(2,4-dimethoxyphenoxy)-N-(3-sulfamoylphenyl)quinoline-3-carboxamide]",0.026
12,"COc1cc(Cl)ccc1Oc1nc2ccccc2cc1C(=O)Nc1cccc(S(N)(=O)=O)c1 [Compound 73, 2-(4-chloro-2-methoxyphenoxy)-N-(3-sulfamoylphenyl)quinoline-3-carboxamide]",0.031

# These reach a lower IC50. Values come first.
row,IC50 [µM],SMILES
1,0.022,"COc1cc(F)ccc1Oc1nc2ccccc2nc1C(=O)Nc1ccncc1 [Compound 53, 3-(4-fluoro-2-methoxyphenoxy)-N-(pyridin-4-yl)quinoxaline-2-carboxamide]"
2,0.019,"COc1cc(F)ccc1Oc1nc2ccccc2nc1C(=O)Nc1ccc2[nH]c(=O)[nH]c2c1 [Compound 57, 3-(4-fluoro-2-methoxyphenoxy)-N-(2-oxo-2,3-dihydro-1H-benzo[d]imidazol-5-yl)quinoxaline-2-carboxamide]"
3,0.017,"NS(=O)(=O)c1cccc(NC(=O)c2cc3ccccc3nc2Oc2ccc(F)cc2)c1 [Compound 60, 2-(4-fluorophenoxy)-N-(3-sulfamoylphenyl)quinoline-3-carboxamide]"
4,0.011,"COc1cc(F)ccc1Oc1nc2ccccc2cc1C(=O)Nc1cccc(S(N)(=O)=O)c1 [Compound 61, 2-(4-fluoro-2-methoxyphenoxy)-N-(3-sulfamoylphenyl)quinoline-3-carboxamide]"
5,0.008,"Cc1cc(F)ccc1Oc1nc2ccccc2cc1C(=O)Nc1cccc(S(N)(=O)=O)c1 [Compound 63, 2-(4-fluoro-2-methylphenoxy)-N-(3-sulfamoylphenyl)quinoline-3-carboxamide]"
6,0.011,"NS(=O)(=O)c1cccc(NC(=O)c2cc3ccccc3nc2Oc2ccc(F)cc2F)c1 [Compound 65, 2-(2,4-difluorophenoxy)-N-(3-sulfamoylphenyl)quinoline-3-carboxamide]"
7,0.002,"NS(=O)(=O)c1cccc(NC(=O)c2cc3ccccc3nc2Oc2ccc(F)cc2Cl)c1 [Compound 66, 2-(2-chloro-4-fluorophenoxy)-N-(3-sulfamoylphenyl)quinoline-3-carboxamide]"
8,0.013,"NS(=O)(=O)c1cccc(NC(=O)c2cc3ccccc3nc2Oc2ccc(OC(F)(F)F)cc2)c1 [Compound 68, N-(3-sulfamoylphenyl)-2-(4-(trifluoromethoxy)phenoxy)quinoline-3-carboxamide]"
9,0.015,"COc1ccc(Oc2nc3ccccc3cc2C(=O)Nc2cccc(S(N)(=O)=O)c2)c(Cl)c1 [Compound 69, 2-(2-chloro-4-methoxyphenoxy)-N-(3-sulfamoylphenyl)quinoline-3-carboxamide]"
10,0.014,"Cc1cc(Cl)ccc1Oc1nc2ccccc2cc1C(=O)Nc1cccc(S(N)(=O)=O)c1 [Compound 71, 2-(4-chloro-2-methylphenoxy)-N-(3-sulfamoylphenyl)quinoline-3-carboxamide]"
